The text below walks through data of ChEMBL document CHEMBL4619813, “Virtual Screening for Ligand Discovery at the σ1 Receptor” (ACS Med Chem Lett, 2020).

pKd, pKi: −log10 of the molar value.

As a reminder, the pKi is −log10 of the Ki, conventionally taken in molar units. One may read the pKd as −log10 of the Kd, conventionally taken in molar units.

The target in assay [1] is Sigma intracellular receptor 2 (Homo sapiens, UniProt Q5BJF2). Kind of assay: Displacement of [3H](+)-DTG from recombinant sigma 2 receptor (unknown origin) expressed in baculovirus infected Sf9 cell membranes after 1.5 hrs by scintillation counting analysis. For orientation: In a radioligand displacement assay an active substance lowers the binding of a labelled ligand.
Sigma intracellular receptor 2, sequence (Q5BJF2 whole entry): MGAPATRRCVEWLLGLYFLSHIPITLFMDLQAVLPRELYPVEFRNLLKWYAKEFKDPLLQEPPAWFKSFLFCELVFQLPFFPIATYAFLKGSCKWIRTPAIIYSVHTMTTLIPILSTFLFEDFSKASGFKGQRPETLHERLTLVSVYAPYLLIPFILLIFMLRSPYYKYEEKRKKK

The nature of assay [2]: Selectivity ratio of Ki for displacement of [3H](+)-DTG from recombinant sigma 2 receptor (unknown origin) expressed in baculovirus infected Sf9 cell membranes to Ki for displacement of [3H](+)-pentazocine from recombinant sigma 1 receptor (unknown origin) expressed in baculovirus infected Sf9 cell membranes. The note with it: Homo sapiens.
For assay [3], the target named is Sigma non-opioid intracellular receptor 1 (Homo sapiens, UniProt Q99720). Kind of assay: Displacement of [3H](+)-pentazocine from recombinant sigma 1 receptor (unknown origin) expressed in baculovirus infected Sf9 cell membranes after 1.5 hrs by scintillation counting analysis.
Sigma non-opioid intracellular receptor 1, sequence (Q99720 whole entry): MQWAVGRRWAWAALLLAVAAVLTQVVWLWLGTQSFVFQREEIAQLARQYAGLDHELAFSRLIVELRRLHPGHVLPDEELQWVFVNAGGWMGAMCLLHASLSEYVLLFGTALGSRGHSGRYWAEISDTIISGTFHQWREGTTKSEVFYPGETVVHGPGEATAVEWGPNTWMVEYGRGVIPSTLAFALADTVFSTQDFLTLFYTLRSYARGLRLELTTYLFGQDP

As for `Cc1nn(-c2ccccc2Cl)c(Cl)c1CNCc1cc(F)cc(F)c1`, the pKi in assay [1] is 6.01; in assay [3], 6.79. The Ratio Ki in assay [2] was 6.

As for `CC(CCc1c[nH]c2ccccc12)NC1CCN(C(=O)C(C)C)CC1` (stereo not given), the pKd in assay [1] and in assay [3] was below 6.00 in each case.

Take `NC(=O)c1cccc(CNC2CCN(c3ccc(F)c(Cl)c3)C2)c1` (stereo not given): the pKi in assay [1] was 6.60; in assay [3], 6.66. In assay [2], the Ratio Ki was found to be 1.1.

In the case of `FC(F)(F)c1cccc(N2CCC(/N=C/c3ccc(Br)cc3)N2)c1` (stereo not given), the pKd in assay [1] and in assay [3] was below 6.00 each time.

Take `O=C(c1c[nH]c2ccccc12)N1CCC(N2CCc3ccccc3C2)C1` (stereo not given): the pKd in assay [1] and in assay [3] was below 6.00 throughout.

On to `Cc1[nH]c2cc(C(F)(F)F)ccc2c(=O)c1CN(C)Cc1ccccc1`, for which the pKi is 5.53 in assay [1] and 7.05 in assay [3]. The Ratio Ki in assay [2] is 33.2.

Turning to `FC(F)(F)c1cccc(-c2ccc(CNCc3cccnc3)o2)c1`, in assay [3], the pKi was 6.72.

As for `O=C(c1ccc(C(F)(F)F)cc1)N1CCN(Cc2ccccc2)CC1`, the pKi in assay [3] was 6.04.

On to `OC1COCCC1NC1CCN(c2ccc(C(F)(F)F)cn2)CC1` (stereo not given), for which the values for the pKi in assay [1] and in assay [3] were 7.82 and 7.74, respectively. In assay [2], the Ratio Ki came to 0.8.

Take `Cc1nn(CCO)cc1CN(C)Cc1csc(-c2ccccc2)n1`: the pKi was 5.62 in assay [1] and 6.90 in assay [3]. The Ratio Ki in assay [2] turned out to be 18.7.

In the case of `Fc1ccc(CN2CCCN(C(=S)Nc3cc(F)cc(F)c3)C2)cc1`, the pKi in assay [1] is 6.02; in assay [3] it was 7.64. Further, in assay [2], the Ratio Ki was found to be 41.3.

In the case of `NC(Cc1ccccc1)C(=O)N1CCN(c2ccc3nccn3n2)CC1` (stereo not given), the pKd in assay [1] and in assay [3] was below 6.00 in each case.

On to `Cc1c(C(=O)NC(CN(C)C)c2ccccc2)cnn1-c1ccc(F)cc1` (stereo not given), for which the pKd in assay [1] and in assay [3] was below 6.00 each time.
